Measurements from article PMC12264554, “Application of preclinical absorption, distribution, metabolism, elimination in vitro techniques for the characterization and compound library optimization of novel antibiotic gallium salophen” (Drug Metabolism and Disposition, 2025).

How the values were obtained:
[1] = target: HasA (Pseudomonas aeruginosa, UniProt G3XD33); experiment: Kd determination by fluorescence quenching of apo-HasAp; conditions: read-out: HasA Kd; apo-HasAp 1 μM, 20 mM sodium phosphate pH 7.4, 25 °C, one-site binding fit
Experimental: Wild-type, full-length HasAp was prepared from freshly transformed Escherichia coli BL21(DE3) competent cells as previously described in 4 L of M9 media. Cell pellets were resuspended and lysed with an LM-20 microfluidizer at 18,000 psi. Lysate was clarified by centrifugation and applied to a Q-Sepharose column. HasAp was eluted over a gradient from 20 to 600 mM NaCl in 20 mM Tris-HCl (pH 7.5), and desired fractions determined by SDS-PAGE were pooled. Apo-HasAp was further purified on a Butyl Sepharose Fast Flow column equilibrated with 50 mM sodium phosphate buffer with 0.7 M ammonium sulfate (pH 7.0). Holo-HasAp and other proteins eluted within 2–3 bed volumes of 50 mM sodium phosphate containing 0.5 M ammonium sulfate. Apo-HasAp was then eluted with a linear gradient of sodium phosphate buffer (50–20 mM) containing ammonium sulfate (0.5–0 M). Fractions were analyzed again by SDS-PAGE, and the apo-HasAp was pooled, concentrated (Amicon stirred cell with Ultracel 10 kDa filter), and exchanged into 20 mM sodium phosphate buffer.
Binding affinities were determined using a BioTek Synergy H1 microplate reader in a black 96-well plate. Compounds were solvated in H2O in serial dilutions (100–0.39 μM). One micromolar solution of apo-HasAp 20 mM sodium phosphate buffer (pH 7.4, 25 °C) was titrated into the ligand of interest. Emission spectra were recorded (300–500 nm) after excitation at 280 nm. The decrease in maximum emission was plotted against the ligand concentration (accounting for dilution) and fit to one-site binding using GraphPad Prism v10.

[2] = Microsomal clearance assay; format: in vitro ADME, rat
Experimental: Library compounds were tested in triplicate at a concentration of 2 μM and incubated in 0.1 M potassium phosphate buffer containing 12 mM MgCl2 and 8 mM NADPH at pH 7.4 with either 0.5 mg/mL of Sprague–Dawley liver microsomes (Invitrogen). Samples were incubated for 0, 3, 7, 12, 20, and 30 minutes. At the designated time point, the incubation reaction was stopped by adding 100 μL of ACN containing 1 μM of either GaSal-4 or GaSal-5 as the internal standards. […] 7-Ethoxycoumarin (Sigma) was used as a positive control in this experiment. Intrinsic clearance (CLint) was calculated using eq. 2:(2) CLint=0.693/InVitroT1/2∗IncubationVolume/mgofmicrosomes∗45mgmicrosomes/gramofliver∗45gramsliver/kgofbodyweight
The average CLint ± SEM was determined for each compound for 2 replicates per time point.

[3] = S9 clearance assay; format: in vitro ADME; conditions: average ± SEM n = 3; for CLint scaled: S9 rat liver fraction, 2 μM, read-out: Predicted CLint (converted); for half-life at 2 µM: pH 7.4, S9 rat liver fraction
Experimental: Select library compounds were tested in triplicate at a concentration of 2 μM and incubated in 0.1 M potassium phosphate buffer containing 12 mM MgCl2 and 8 mM NADPH at pH 7.4 with 2.5 mg/mL of Sprague–Dawley S9 (Invitrogen). Incubations contained a final concentration of 2.5 mM UDP glucuronic acid, 0.10 mM adenosine 3’-phosphate 5’-phosphosulfate, 0.5 mM acetyl CoA, and 50 μg/mg protein alamethicin. All co-factors were from Sigma. Samples were incubated for 0, 3, 7, 12, 20, and 30 minutes. At the designated time point, the incubation reaction was stopped by adding 100 μL of ACN containing 1 μM of either GaSal-4 or GaSal-5 as the internal standard. […] A hundred microliter of supernatant was taken for LC-MS/MS analysis. 7-Ethoxycoumarin (Sigma) was used as a positive control in this experiment. Clearance was calculated according to eq. 3:(3) CLint=0.693/InVitroT1/2∗IncubationVolume/mgofS9∗165mgS9/gramofliver∗45gramsliver/kgofbodyweight
The average CLint ± SEM was determined for each compound for 3 replicates per time point.

[4] = tested on: CYP; experiment: 7-Ethoxycoumarin metabolism in microsomes in the presence of GaSal analogs (possible CYP inhibition); format: in vitro ADME, rat; conditions: co-incubation with 7-ethoxycoumarin

HasA, sequence (G3XD33 entry or part of it): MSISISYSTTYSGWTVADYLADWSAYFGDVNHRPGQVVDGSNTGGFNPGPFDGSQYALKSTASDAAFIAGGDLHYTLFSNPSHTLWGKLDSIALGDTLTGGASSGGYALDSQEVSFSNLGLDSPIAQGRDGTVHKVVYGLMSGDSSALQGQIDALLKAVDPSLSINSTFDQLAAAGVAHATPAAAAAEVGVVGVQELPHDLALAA

Structure (SMILES)	Kd [1]	CLint scaled ([2]; 2 μM, 0.5 mg/mL rat liver microsomes, NADPH, 30 min, read-out: experimental CLint (microsomes))	CLint scaled [3]	half-life at 2 µM [3]	7-ethoxycoumarin metabolism when co-incubated (possible CYP inhibition) [4]	decrease in peak area over time ([2]; rat liver microsomes, 30-minute period)
Oc1ccccc1/C=N/c1ccccc1/N=C/c1ccccc1O.[Ga+3] [GaSal, gallium salophen]	800 ± 100 nM	21.3 to 63 mL/min/kg	136 mL/min/kg	0.59 ± 0.15 h	CYP inhibition	–
Oc1cc(OCCN2CCOCC2)ccc1C=Nc1ccccc1N=Cc1ccc(OCCN2CCOCC2)cc1O.[Ga+3] [GaSal-3]	1500 ± 300 nM	–	30.2 mL/min/kg	2.67 ± 1.21 h	–	< 10%
O=C(O)CCOc1ccc(C=Nc2ccccc2N=Cc2ccc(OCCC(=O)O)cc2O)c(O)c1.[Ga+3] [GaSal-4]	1100 ± 100 nM	–	398 mL/min/kg	0.2 ± 0.1 h	–	–
COCCOCCOc1ccc(C=Nc2ccccc2N=Cc2ccc(OCCOCCOC)cc2O)c(O)c1.[Ga+3] [GaSal-5]	2500 ± 1200 nM	–	27.8 mL/min/kg	2.88 ± 3.37 h	–	–
COCCOc1ccc(/C=N/c2ccccc2/N=C/c2ccc(OCCOC)cc2O)c(O)c1.[Ga+3] [GaSal-13]	960 ± 140 nM	–	–	–	–	–
COCCOc1ccc(/C=N/c2ccccc2N=C(C)c2ccccc2O)c(O)c1.[Ga+3] [GaSal-14]	2840 ± 120 nM	–	–	–	–	–
